ChEMBL document CHEMBL1143396, “Additivity in the analysis and design of HIV protease inhibitors” (J Med Chem, 2009)

Molecular target: Human immunodeficiency virus type 1 protease (Human immunodeficiency virus 1, UniProt Q72874, Q7K)
Experiment: Inhibition of HIV1 protease Q7K mutant by FRET method

`CC[C@@H](C)CN(C[C@@H](O)[C@H](Cc1ccccc1)NC(=O)C1(C(N)=O)CC1)S(=O)(=O)c1ccc2ncsc2c1` was tested, and the Ki (read-out: Ki) was 132 pM and the Ki (read-out: pKi (converted)) was 132 pM.
Compound `CCCCCN(C[C@@H](O)[C@H](Cc1ccccc1)NC(=O)CCC(=O)CC)S(=O)(=O)c1ccc2ncsc2c1` has a Ki (read-out: Ki) of 1620 pM and a Ki (read-out: pKi (converted)) of 1620 pM.
